Legend:
[1] = molecular target: TGF-beta receptor type-1 (Homo sapiens) (UniProt P36897); settings: Compound concentration 1000.0 nM
[2] = molecular target: Ephrin type-A receptor 8 (Homo sapiens) (UniProt P29322); settings: Compound concentration 1000.0 nM
[3] = molecular target: Delta-type opioid receptor (Homo sapiens) (UniProt P41143); settings: Compound concentration 10.0 uM
[4] = molecular target: Serine/threonine-protein kinase WNK3 (Homo sapiens) (UniProt Q9BYP7); settings: Compound concentration 1000.0 nM
[5] = molecular target: Phosphatidylinositol 4-phosphate 5-kinase type-1 alpha (Homo sapiens) (UniProt Q99755); settings: Compound concentration 1000.0 nM
[6] = molecular target: Phosphorylase b kinase gamma catalytic chain, skeletal muscle/heart isoform (Homo sapiens) (UniProt Q16816); settings: Compound concentration 1000.0 nM
[7] = molecular target: Tyrosine-protein kinase ABL2 (Homo sapiens) (UniProt P42684); settings: Compound concentration 1000.0 nM
[8] = molecular target: Protein kinase C epsilon type (Homo sapiens) (UniProt Q02156); settings: Compound concentration 1000.0 nM
[9] = molecular target: Serine/threonine-protein kinase 32B (Homo sapiens) (UniProt Q9NY57); settings: Compound concentration 1000.0 nM
[10] = system: Receptor-type tyrosine-protein kinase FLT3 (Homo sapiens), P36888 [N841I]; settings: Compound concentration 1000.0 nM
[11] = molecular target: Mitogen-activated protein kinase kinase kinase 5 (Homo sapiens) (UniProt Q99683); settings: Compound concentration 1000.0 nM
[12] = molecular target: Tyrosine-protein kinase BTK (Homo sapiens) (UniProt Q06187); settings: Compound concentration 1000.0 nM
[13] = molecular target: Serine/threonine-protein kinase 16 (Homo sapiens) (UniProt O75716); settings: Compound concentration 1000.0 nM
[14] = molecular target: Serine/threonine-protein kinase 24 (Homo sapiens) (UniProt Q9Y6E0); settings: Compound concentration 1000.0 nM
[15] = molecular target: Mitogen-activated protein kinase kinase kinase 19 (Homo sapiens) (UniProt Q56UN5); settings: Compound concentration 1000.0 nM
[16] = system: Receptor-type tyrosine-protein kinase FLT3 (Homo sapiens), P36888 [K663Q]; settings: Compound concentration 1000.0 nM
[17] = molecular target: Leucine-rich repeat serine/threonine-protein kinase 2 (Homo sapiens) (UniProt Q5S007); settings: Compound concentration 1000.0 nM
[18] = molecular target: Wee1-like protein kinase 2 (Homo sapiens) (UniProt P0C1S8); settings: Compound concentration 1000.0 nM
[19] = molecular target: Protein kinase C iota type (Homo sapiens) (UniProt P41743); settings: Compound concentration 1000.0 nM
[20] = molecular target: Serine/threonine-protein kinase 38 (Homo sapiens) (UniProt Q15208); settings: Compound concentration 1000.0 nM
[21] = molecular target: Cyclin-dependent kinase 15 (Homo sapiens) (UniProt Q96Q40); settings: Compound concentration 1000.0 nM
[22] = molecular target: Tyrosine-protein kinase Blk (Homo sapiens) (UniProt P51451); settings: Compound concentration 1000.0 nM
[23] = molecular target: NUAK family SNF1-like kinase 2 (Homo sapiens) (UniProt Q9H093); settings: Compound concentration 1000.0 nM
[24] = molecular target: Serine/threonine-protein kinase B-raf (Homo sapiens) (UniProt P15056); settings: Compound concentration 1000.0 nM
[25] = molecular target: LIM domain kinase 1 (Homo sapiens) (UniProt P53667); settings: Compound concentration 1000.0 nM
[26] = molecular target: Serine/threonine-protein kinase PLK3 (Homo sapiens) (UniProt Q9H4B4); settings: Compound concentration 1000.0 nM
[27] = molecular target: Ephrin type-A receptor 6 (Homo sapiens) (UniProt Q9UF33); settings: Compound concentration 1000.0 nM
[28] = molecular target: Serine/threonine-protein kinase MRCK alpha (Homo sapiens) (UniProt Q5VT25); settings: Compound concentration 1000.0 nM
[29] = molecular target: MAP/microtubule affinity-regulating kinase 4 (Homo sapiens) (UniProt Q96L34); settings: Compound concentration 1000.0 nM
[30] = molecular target: Activin receptor type-1B (Homo sapiens) (UniProt P36896); settings: Compound concentration 1000.0 nM
[31] = system: Receptor-type tyrosine-protein kinase FLT3 (Homo sapiens), P36888 [UNDEFINED MUTATION]; settings: Compound concentration 1000.0 nM
[32] = molecular target: cAMP-dependent protein kinase catalytic subunit PRKX (Homo sapiens) (UniProt P51817); settings: Compound concentration 1000.0 nM
[33] = molecular target: Muscarinic acetylcholine receptor M4 (Homo sapiens) (UniProt P08173); settings: Compound concentration 10.0 uM
[34] = molecular target: Tyrosine-protein kinase SYK (Homo sapiens) (UniProt P43405); settings: Compound concentration 1000.0 nM
[35] = molecular target: Homeodomain-interacting protein kinase 1 (Homo sapiens) (UniProt Q86Z02); settings: Compound concentration 1000.0 nM
[36] = species: Rattus norvegicus; settings: Compound concentration 10.0 uM
[37] = molecular target: T1, Alpha-2A adrenergic receptor (Homo sapiens) (UniProt P08913); settings: Compound concentration 10.0 uM
T1 sequence (whole entry): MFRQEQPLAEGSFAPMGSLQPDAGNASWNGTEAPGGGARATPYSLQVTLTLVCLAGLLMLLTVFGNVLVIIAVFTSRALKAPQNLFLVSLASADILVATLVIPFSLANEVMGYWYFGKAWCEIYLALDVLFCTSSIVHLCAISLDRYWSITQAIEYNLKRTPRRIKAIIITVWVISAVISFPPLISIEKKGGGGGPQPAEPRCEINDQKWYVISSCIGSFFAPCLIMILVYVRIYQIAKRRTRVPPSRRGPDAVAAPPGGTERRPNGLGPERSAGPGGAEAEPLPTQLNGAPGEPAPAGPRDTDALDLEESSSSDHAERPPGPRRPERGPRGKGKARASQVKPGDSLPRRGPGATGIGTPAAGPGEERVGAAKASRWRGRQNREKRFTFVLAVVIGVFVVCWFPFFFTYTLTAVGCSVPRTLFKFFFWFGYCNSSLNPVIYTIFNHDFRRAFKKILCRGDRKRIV

[38] = molecular target: RAC-beta serine/threonine-protein kinase (Homo sapiens) (UniProt P31751); settings: Compound concentration 1000.0 nM
[39] = molecular target: Mitogen-activated protein kinase kinase kinase 14 (Homo sapiens) (UniProt Q99558); settings: Compound concentration 1000.0 nM

Activin receptor type-1B (Homo sapiens), sequence (P36896 whole entry): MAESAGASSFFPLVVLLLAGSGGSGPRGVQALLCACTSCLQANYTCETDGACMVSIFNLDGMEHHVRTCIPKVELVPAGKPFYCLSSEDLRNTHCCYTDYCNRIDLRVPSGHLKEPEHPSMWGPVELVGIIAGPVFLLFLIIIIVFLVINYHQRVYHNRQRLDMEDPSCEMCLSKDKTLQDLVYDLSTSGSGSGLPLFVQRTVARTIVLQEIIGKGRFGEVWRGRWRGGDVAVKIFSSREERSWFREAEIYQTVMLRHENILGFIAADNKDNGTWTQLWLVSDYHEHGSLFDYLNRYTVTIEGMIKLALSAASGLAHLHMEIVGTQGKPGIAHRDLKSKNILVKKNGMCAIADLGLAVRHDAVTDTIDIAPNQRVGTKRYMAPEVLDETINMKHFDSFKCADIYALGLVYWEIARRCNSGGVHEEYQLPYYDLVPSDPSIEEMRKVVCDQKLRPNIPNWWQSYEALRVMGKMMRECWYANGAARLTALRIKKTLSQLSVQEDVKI
LIM domain kinase 1 (Homo sapiens), sequence (P53667 whole entry, looked up, the tested form may be a part): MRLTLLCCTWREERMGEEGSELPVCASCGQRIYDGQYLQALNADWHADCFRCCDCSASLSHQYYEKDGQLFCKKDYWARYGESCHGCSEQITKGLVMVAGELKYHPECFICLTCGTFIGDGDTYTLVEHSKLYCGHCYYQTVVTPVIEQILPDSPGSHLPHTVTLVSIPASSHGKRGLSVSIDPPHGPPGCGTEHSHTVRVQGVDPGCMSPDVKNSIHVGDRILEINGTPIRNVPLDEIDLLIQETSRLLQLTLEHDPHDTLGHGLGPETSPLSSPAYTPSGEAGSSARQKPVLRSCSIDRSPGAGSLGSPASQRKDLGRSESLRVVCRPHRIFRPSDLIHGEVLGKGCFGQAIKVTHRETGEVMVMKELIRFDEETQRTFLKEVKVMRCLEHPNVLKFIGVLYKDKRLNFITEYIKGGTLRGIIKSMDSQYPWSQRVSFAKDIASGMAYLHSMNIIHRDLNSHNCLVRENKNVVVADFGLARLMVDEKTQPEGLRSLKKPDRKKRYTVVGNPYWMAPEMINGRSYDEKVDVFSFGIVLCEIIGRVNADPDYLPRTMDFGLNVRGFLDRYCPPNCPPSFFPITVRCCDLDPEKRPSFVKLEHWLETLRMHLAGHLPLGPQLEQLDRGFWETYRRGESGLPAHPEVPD
Wee1-like protein kinase 2 (Homo sapiens), sequence (P0C1S8 whole entry, looked up): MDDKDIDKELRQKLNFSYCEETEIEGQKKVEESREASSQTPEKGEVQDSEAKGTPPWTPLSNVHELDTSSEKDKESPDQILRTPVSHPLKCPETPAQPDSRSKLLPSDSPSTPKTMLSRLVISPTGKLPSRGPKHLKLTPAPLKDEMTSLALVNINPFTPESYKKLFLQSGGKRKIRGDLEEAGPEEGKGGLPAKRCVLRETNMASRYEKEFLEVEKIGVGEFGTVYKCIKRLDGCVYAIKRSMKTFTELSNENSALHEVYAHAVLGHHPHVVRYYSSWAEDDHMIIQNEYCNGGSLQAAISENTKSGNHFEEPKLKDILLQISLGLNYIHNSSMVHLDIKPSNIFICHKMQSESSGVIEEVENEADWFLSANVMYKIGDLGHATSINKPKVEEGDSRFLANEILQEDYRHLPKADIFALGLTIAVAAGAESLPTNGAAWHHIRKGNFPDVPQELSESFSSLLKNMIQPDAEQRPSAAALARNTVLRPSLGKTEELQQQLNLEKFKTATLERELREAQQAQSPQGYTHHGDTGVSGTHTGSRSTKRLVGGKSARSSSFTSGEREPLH
Ephrin type-A receptor 6 (Homo sapiens), sequence (Q9UF33 whole entry): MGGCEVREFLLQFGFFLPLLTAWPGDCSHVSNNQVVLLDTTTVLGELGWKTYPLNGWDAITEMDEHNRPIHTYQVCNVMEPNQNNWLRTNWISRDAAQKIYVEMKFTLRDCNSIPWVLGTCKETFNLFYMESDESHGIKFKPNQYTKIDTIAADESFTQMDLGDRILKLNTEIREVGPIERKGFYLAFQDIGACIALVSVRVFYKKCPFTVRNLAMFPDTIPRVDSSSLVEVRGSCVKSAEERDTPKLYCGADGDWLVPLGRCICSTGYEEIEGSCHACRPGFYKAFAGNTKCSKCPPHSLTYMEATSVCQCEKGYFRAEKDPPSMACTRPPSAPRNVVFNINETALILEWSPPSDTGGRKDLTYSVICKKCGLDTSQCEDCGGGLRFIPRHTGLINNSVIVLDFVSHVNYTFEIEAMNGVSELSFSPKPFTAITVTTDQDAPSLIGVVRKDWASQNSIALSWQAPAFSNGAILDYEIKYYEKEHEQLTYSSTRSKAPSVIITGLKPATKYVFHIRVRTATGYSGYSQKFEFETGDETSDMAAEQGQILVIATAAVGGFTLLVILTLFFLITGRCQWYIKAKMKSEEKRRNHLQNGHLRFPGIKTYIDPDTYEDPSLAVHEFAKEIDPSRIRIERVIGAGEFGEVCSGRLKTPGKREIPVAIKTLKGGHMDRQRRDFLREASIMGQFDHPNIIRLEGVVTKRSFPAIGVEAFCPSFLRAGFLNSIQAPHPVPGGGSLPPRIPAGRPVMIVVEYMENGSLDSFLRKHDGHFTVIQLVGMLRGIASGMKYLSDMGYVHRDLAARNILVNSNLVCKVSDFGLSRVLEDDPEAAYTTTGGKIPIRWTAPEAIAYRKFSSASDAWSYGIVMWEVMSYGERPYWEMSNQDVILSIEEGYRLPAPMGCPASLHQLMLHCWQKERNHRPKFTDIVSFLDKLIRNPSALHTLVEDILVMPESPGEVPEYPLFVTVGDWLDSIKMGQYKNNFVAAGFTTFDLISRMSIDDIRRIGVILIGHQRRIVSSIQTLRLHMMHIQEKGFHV
Mitogen-activated protein kinase kinase kinase 5 (Homo sapiens), sequence (Q99683 whole entry): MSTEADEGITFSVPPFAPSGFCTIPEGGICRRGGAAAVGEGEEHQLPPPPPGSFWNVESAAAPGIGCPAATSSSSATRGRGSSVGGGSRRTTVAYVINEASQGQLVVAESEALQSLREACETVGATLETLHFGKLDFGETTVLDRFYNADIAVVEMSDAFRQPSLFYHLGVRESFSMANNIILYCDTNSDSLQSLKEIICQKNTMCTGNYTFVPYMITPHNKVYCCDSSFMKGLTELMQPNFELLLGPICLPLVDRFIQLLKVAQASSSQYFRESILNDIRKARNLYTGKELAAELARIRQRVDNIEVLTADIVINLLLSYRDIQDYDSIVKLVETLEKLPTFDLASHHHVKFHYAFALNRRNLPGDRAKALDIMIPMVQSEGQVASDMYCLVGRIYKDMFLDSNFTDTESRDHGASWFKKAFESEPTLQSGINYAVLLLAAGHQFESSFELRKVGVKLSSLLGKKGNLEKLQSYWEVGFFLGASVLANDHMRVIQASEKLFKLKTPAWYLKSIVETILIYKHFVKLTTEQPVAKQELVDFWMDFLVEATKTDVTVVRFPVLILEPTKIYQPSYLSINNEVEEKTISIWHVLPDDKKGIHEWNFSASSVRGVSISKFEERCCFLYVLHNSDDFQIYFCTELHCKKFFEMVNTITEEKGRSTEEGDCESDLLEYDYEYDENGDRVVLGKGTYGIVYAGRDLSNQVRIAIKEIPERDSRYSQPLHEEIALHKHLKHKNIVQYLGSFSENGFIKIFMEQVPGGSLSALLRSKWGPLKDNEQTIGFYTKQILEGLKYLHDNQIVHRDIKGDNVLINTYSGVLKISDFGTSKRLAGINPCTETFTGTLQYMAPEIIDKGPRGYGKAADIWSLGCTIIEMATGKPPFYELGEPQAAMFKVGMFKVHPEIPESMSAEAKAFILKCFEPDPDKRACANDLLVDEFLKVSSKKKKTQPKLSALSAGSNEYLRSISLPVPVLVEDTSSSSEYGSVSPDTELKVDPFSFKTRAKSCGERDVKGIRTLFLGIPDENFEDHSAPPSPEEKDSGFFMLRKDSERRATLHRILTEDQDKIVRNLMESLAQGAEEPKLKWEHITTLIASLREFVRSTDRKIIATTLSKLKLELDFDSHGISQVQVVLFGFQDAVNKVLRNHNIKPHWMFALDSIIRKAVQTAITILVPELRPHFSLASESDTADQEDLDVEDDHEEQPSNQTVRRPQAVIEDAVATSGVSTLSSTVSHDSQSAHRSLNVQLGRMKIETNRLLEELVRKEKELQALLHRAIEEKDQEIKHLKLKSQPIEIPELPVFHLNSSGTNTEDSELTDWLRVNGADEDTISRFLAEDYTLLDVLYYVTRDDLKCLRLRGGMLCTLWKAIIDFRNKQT
cAMP-dependent protein kinase catalytic subunit PRKX (Homo sapiens), sequence (P51817 whole entry): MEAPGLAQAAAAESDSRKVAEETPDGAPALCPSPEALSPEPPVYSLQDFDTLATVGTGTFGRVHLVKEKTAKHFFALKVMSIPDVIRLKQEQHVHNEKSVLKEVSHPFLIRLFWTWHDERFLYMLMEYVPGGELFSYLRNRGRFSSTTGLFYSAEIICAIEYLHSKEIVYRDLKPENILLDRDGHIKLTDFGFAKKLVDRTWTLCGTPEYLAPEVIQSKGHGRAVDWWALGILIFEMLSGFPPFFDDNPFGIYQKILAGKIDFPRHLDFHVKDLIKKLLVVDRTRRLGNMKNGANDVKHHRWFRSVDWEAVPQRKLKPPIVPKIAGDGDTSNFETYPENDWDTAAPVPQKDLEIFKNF
Cyclin-dependent kinase 15 (Homo sapiens), sequence (Q96Q40 whole entry): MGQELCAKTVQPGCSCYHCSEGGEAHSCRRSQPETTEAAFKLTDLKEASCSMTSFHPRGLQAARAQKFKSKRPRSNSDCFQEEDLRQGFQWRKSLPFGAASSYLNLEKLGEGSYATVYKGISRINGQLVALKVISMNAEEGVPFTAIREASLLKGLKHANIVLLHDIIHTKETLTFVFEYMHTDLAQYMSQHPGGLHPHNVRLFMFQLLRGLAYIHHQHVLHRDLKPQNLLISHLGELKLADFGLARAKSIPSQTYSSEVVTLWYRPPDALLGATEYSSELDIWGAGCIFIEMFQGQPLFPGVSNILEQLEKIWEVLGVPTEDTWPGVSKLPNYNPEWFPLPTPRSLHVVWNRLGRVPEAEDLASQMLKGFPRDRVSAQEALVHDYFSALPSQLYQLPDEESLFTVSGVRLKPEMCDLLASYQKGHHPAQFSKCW

SMILES	residual activity [1]	residual activity [2]	inhibition [3]	residual activity [4]	residual activity [5]	residual activity [6]	residual activity [7]	residual activity [8]	residual activity [9]	residual activity [10]	residual activity [11]	residual activity [12]	residual activity [13]	residual activity [14]	residual activity [15]	residual activity [16]	residual activity [17]	residual activity [18]	residual activity [19]	residual activity [20]	also measured
NS(=O)(=O)c1cc(NC(=O)Cc2ccccc2)ccc1Oc1cccc(Cl)c1 [BAY-1797]	100%	100%	20.5%	78%	100%	87%	87%	87%	100%	55%	100%	76%	95%	82%	78%	99%	72%	78%	93%	90%	residual activity [21]: 88%; residual activity [22]: 68%; residual activity [23]: 91%; residual activity [24]: 96%; residual activity [25]: 87%; residual activity [26]: 87%; residual activity [27]: 83%; residual activity [28]: 91%; residual activity [29]: 100%; residual activity [30]: 98%; residual activity [31]: 53%; residual activity [32]: 91%; inhibition [33]: 10.2%; residual activity [34]: 66%; residual activity [35]: 80%; inhibition [36]: 5.06%; inhibition [37]: 6.31%; residual activity [38]: 100%; residual activity [39]: 67%
NS(=O)(=O)c1cc(NC(=O)C2(c3ccccc3Cl)CC2)ccc1Oc1cccc(Cl)c1 [BAY-207]	82%	80%	41.6%	78%	100%	89%	80%	65%	91%	32%	88%	88%	100%	93%	70%	100%	89%	74%	98%	81%	residual activity [21]: 98%; residual activity [22]: 100%; residual activity [23]: 80%; residual activity [24]: 71%; residual activity [25]: 100%; residual activity [26]: 86%; residual activity [27]: 54%; residual activity [28]: 95%; residual activity [29]: 82%; residual activity [30]: 89%; residual activity [31]: 100%; residual activity [32]: 77%; inhibition [33]: -1.95%; residual activity [34]: 70%; residual activity [35]: 91%; inhibition [36]: 87.5%; inhibition [37]: 40.8%; residual activity [38]: 100%; residual activity [39]: 100%
